In brackets after ≈: the same amount, converted by molar mass. Structures can show the parent of a compound that is named as a salt. Where two headings read alike, the source gives them in different places. Marks after values point to notes of the source that are not given here. A value given as a limit tells only on which side of the number the result lay.

These results are taken from publication PMC10609944, “Development of a Dosage form for a Photoswitchable Local Anesthetic Ethercaine” (Pharmaceuticals, 2023).

Data set [1] has as its system rabbit eye cornea. The arrangement: method as in PMID 35628162. Particulars: n = 8, cited from earlier work.
The nature of data set [2]: Solubilization of ethercaine: maximum solubility. Type of data set: physicochemical. From the text: Since ETH itself, as a free base, is virtually insoluble in water and only partially soluble in 4% solution of Kolliphor ELP, at the first stage it was decided to study the effects of increasing the concentration of Kolliphor ELP and replacing it with Pluronic F127. Pluronic F127 is also an FDA-approved solubilizer of a different nature to the Kolliphor ELP, so it was selected as an alternative solubilizer for the study. Both substances are surfactants capable of forming direct micelles in aqueous solutions for loading hydrophobic compounds that are sparingly soluble in water. We chose a 4% concentration of Kolliphor ELP as the initial concentration that is suitable for the solubilization of hydrophobic dyes but is safe for clinical use, including for intravenous administration. In the case of other administration routes, for example, for ophthalmic use, this concentration can be increased. For further studies, we chose a 10% concentration of Kolliphor ELP. Despite an almost two-fold increase in the maximum solubility of ETH (Table 1) with an increase in the concentration of Kolliphor ELP from 4% to 10%, data on biological activity indicated an unstable and undulating local anesthetic effect on the cornea of the rabbit eye according to the Regnier method, which appeared to be due to the delayed drug release at high surfactant concentrations.
At the next stage of the solubility study, micelle-forming solubilizers and an anesthetic in the form of the ETH·HCl salt were used.
A solution of 4-(2-(N-morpholino)-ethoxy)-azobenzene hydrochloride (2) (50.0 mg) in dichloromethane (2 mL) was added dropwise to a freshly prepared 4% aqueous solution of solubilizer (Kolliphor® ELP or Pluronic F127) (5 mL) heated to 45 °C with continuous argon bubbling. Bubbling was continued until strong foaming started. A clear orange solution with a concentration of 1.0% was obtained, which was subsequently filtered in turn through 0.45 µm PTFE filter and then through 0.22 µm PTFE filter.

On the set-up of data set [3]: method as in PMID 35628162. The conditions noted are these: in 4% Kolliphor ELP; cited from earlier work.
Data set [4] is described as follows: Spectrophotometric determination of Z→E half-transformation time (t1/2) in solutions. Type of data set: physicochemical. The conditions noted are these: after 365 nm irradiation, thermal back Z→E, room temperature. On the procedure:
This parameter depends on a number of conditions, including the solvent; therefore, at the next stage, the effect of the solubilizer on the t1/2 value was examined. The study was carried out by a standard method using UV/Vis spectrophotometry. At the beginning of the experiment, the spectrum of the initial photostationary state (PSS) with predominance of the E-form was recorded, after which the solution was irradiated with UV light (λ = 365 nm) and the spectrum of the resulting PSS, with predominance of the Z-form, was recorded.
Next, the rate of reverse isomerization was monitored by measuring the absorption intensity at 5 min intervals. […]
UV/Vis spectroscopy was used for the time determination of Z-isomers’ half-lifes. […] Then, lnAt/A0 values were calculated using Equation (1):(1) lnAt/A0=lnAbsPSS(dark)−Abstime/AbsPSS(dark)−AbsPSS(365nm), where AbsPSS(dark) , AbsPSS(365nm), and Abstime are absorbance values at λmax(E) in the dark at the beginning of the experiment, after UV light (λ = 365 nm) irradiation and at different time points from 0 to 60 min, respectively. Then, a graph was plotted depending on the lnAt/A0 values from the time, a trend line was calculated and a first-order rate constant (k) for the thermal back Z–E isomerization reaction was obtained as the slope of the trend line. […]

For data set [5], the system named is rabbit eye cornea. Put plainly: Local anesthetic activity, surface anesthesia on rabbit eye cornea, Regnier method. Particulars: solutions irradiated with UV light λ = 365 nm vs dark.
From the text: The essence of the method is to estimate the number of eye closures during the tactile exposure of the cornea of a rabbit’s eye. According to the method, four animals (eight experimental points) were selected for each group, except two groups with a negative control. For the latter two animals (four experimental points) were used due to the lack of the activity and to minimize the number of animals in the experiment. The animals were randomly divided into four experimental (1% ETH·HCl in 4% Kolliphor ELP or in 4% Pluronic F127, two modes with and without UV irradiation) and four control groups (4% Kolliphor ELP or 4% Pluronic F127, two modes with and without UV irradiation).
For determination of the sensitivity of rabbit eye cornea using the surface anesthesia method, a total of four rabbits with a basic sensitivity threshold of 1–2 touches were selected. […]
Before the experiment began, the animal was restrained, leaving only its head free. The eyelashes were cut and the sensitivity threshold was determined for each eye. […] After that, the sensitivity threshold of the eye cornea to tactile impact was determined. […] Each time, tactile stimulation of the same strength and rhythm was applied to the cornea and the minimum number of touches causing the eyelids to close (but no more than 100 touches and no longer than for 1 min) was recorded.
[6] abbreviates: aqueous micellar solution of Kolliphor ELP, aqueous with cosolvent or surfactant or cyclodextrin, 4% micellar solution of Kolliphor ELP, read-out: Maximum Solubility of Ethercaine.
The mark [7] stands for this setting: aqueous micellar solution of Pluronic F127, aqueous with cosolvent or surfactant or cyclodextrin, 4% micellar solution of Pluronic F127, read-out: Maximum Solubility of Ethercaine.
Where [8] appears, read: water without excipients, water, no excipients, read-out: Maximum Solubility of Ethercaine.

Regarding `CCN(CC)CC(=O)Nc1c(C)cccc1C` [2% lidocaine hydrochloride, lidocaine hydrochloride], the “Regnier Index (Min—13, Max—1300)” value is listed as 451 ± 40 (n = 8) ^a in data set [1] (Dark) and 469 ± 37 (n = 8) ^a in data set [1] (UV λ = 365 nm).
For `c1ccc(N=Nc2ccc(OCCN3CCOCC3)cc2)cc1` [ETH, 4-(2-(N-Morpholino)-ethoxy)-azobenzene], the solubility in data set [2] (setting [6]) is 6000 µg/mL (≈ 19.3 mM); in data set [2] (aqueous micellar solution of Kolliphor ELP, aqueous with cosolvent or surfactant or cyclodextrin, 10% micellar solution of Kolliphor ELP, read-out: Maximum Solubility of Ethercaine) it was 10000 µg/mL (≈ 32.1 mM); in data set [2] (setting [7]) it was 7000 µg/mL (≈ 22.5 mM); in data set [2] (before development of the dosage form), 0.6%; in data set [2] (developed dosage form), ≥ 2%; in data set [2] (setting [8]) it was < 1000 µg/mL. Also, the “solubility of the anesthetic in water” value in data set [2] (before the hydrochloride micellar dosage forms) is listed as 0.6 wt.%; in data set [2] (dosage forms based on micellar solutions of Kolliphor ELP and Pluronic F127) it was ≥ 2 wt.%. Besides, in data set [3], the “maximum concentration such that the solution remained stable” value is listed as 0.6 wt.%.
As to `c1ccc(/N=N/c2ccc(OCCN3CCOCC3)cc2)cc1` [ETH·HCl, 4-(2-(N-Morpholino)-Ethoxy)-Azobenzene Hydrochloride], the solubility in data set [2] (aqueous micellar solution of Kolliphor ELP, 4% micellar solution of Kolliphor ELP, read-out: Maximum Solubility of Ethercaine) was ≥ 20000 µg/mL; in data set [2] (setting [6]), > 20000 µg/mL; in data set [2] (aqueous micellar solution of Pluronic F127, 4% micellar solution of Pluronic F127, read-out: Maximum Solubility of Ethercaine), ≥ 20000 µg/mL; in data set [2] (setting [7]), > 20000 µg/mL; in data set [2] (setting [8]) it was 6000 µg/mL. Also, the figures for the “Half-Transformation Time (t1/2)” value in data set [4] (4% micellar solution of Kolliphor ELP) and in data set [4] (4% micellar solution of Pluronic F127) were 0.85 h and 1.15 h, respectively. Moreover, in data set [5], the “decrease in the local anesthetic effect on UV irradiation (factor)” value is on record as 16–20.
